“Also recorded” adds a separate entry of the source.
Tested on: normal human breast tissues (breast epithelial cells)
Assay: Tissue explant (tissue slice) culture of normal breast tissue with pathway inhibitors, hormones or tamoxifen: frequency of BrdU+, Ki67+ and p27+ cells
Type: cell-based
Settings: for frequency (numbers) of p27+ cells: normal breast tissue explant / tissue slice culture with inhibitor or tamoxifen, 8-10 days, FIG. 24, FIG. 26C; for number of cells incorporating BrdU: BrdU pulse 5 hrs
[1] = normal breast tissue explant culture with inhibitor for 8-10 days, versus control, FIG. 24

Description: The multicolor immunofluorescence for p27 and Ki67 was performed by incubating the samples with monoclonal antibody anti-p27 (1:100 dilution) and polyclonal antibody anti-Ki67 (1:50 dilution) for one hour at room temperature followed by goat anti-mouse IgG1 Alexa 555-conjugated (Invitrogen, 1:100 dilution, for detection of p27) and goat anti-rabbit Alexa 488-conjugated (Invitrogen, 1:100 dilution, for detection of Ki67) for 30 minutes at room temperature. Multicolor immunofluorescence for pSMAD2 (1:50 dilution), pEGFR (1:50 dilution) and Axin2 (1:20 dilution) were performed by incubation for 2 h at room temperature or overnight at 4° C. followed by secondary antibody Rabbit Alexa 488 conjugated (Invitrogen, 1:100 dilution for pSMAD2 and pEGFR) or mouse IgG1 Alexa-488 conjugated (Invitrogen 1:100 dilution) for Axin2 for 30 minutes at room temperature.
Scoring for the expression of each marker was done as follows: p27 fluorescence intensity was scored in the nuclei of 20 randomly selected cells using the ImageJ 1.43r software; Sox17 and COX2 expression was inferred by the combination of two variables: 1) the percentage cells expressing each marker, and 2) the intensity of each marker transformed into a categorical variable based on 0 no expression, 1 weak expression, 2 moderate expression and 3 high expression; the percentage of p27+, Ki67+ and BrdU+ cells was estimated by counting an average of 1000 cells/sample in the case of the mammary epithelium for premenopausal, postmenopausal and high-low density cases, and an average of 2,000 cells in the case of the tissue slices cultures. % of pSMAD2+ cells was estimated by counting an average of 600 cells/sample. For pEGFR and Axin2 fluorescence intensity measurement, mean fluorescence intensity was measured using Image J 1.43r software by counting an average of 600 cells/sample corrected by area and subtracting the average of background fluorescence intensity. […] For p27 and AR staining, p27 (1:100 dilution and AR (1:30 dilution) antibodies were incubated overnight at 40 C followed by incubation at RT for 1 h with subsequent staining by goat anti-mouse IgG1 Alexa 555-conjugated (Invitrogen, 1:100 dilution, for detection of p27) and anti-rabbit IgG Alexa 488-conjugated (Invitrogen, 1:80 dilution). Percentage of p27+, AR+, ER+ cells was estimated by counting 500-1000 cells/sample. Nuclear staining with DAPI and multiple fluorescence images from each section were acquired with 40× plan apo objective, following procedure described above.
Normal human breast tissues were collected from reduction mammoplasties, transported in ice-cold DMEM-F12 medium, and processed within 24 hrs. For organ cultures, thin (˜1 mm thick) slices of tissue were cut from epithelium-enriched areas and cultured for 8 days in 6-well plates using co-culture inserts to optimize the tissue/medium contact surface and changing medium (2 ml/well) every 24 hrs. […] Following 8 days of culture, labeled tissue slices were pulse with bromo-deoxy-uridine (30 μM final concentration) for 5 hrs before fixing the tissue in buffered formalin at room temperature for 24 hrs followed by embedding in paraffin. Experiments were performed in triplicates using tissue from different regions of the same breast, uncultured tissue and tissue cultured without any drugs as controls.

Structure (SMILES) | frequency (numbers) of p27+ cells | number of cells incorporating BrdU [1] | numbers of p27+ cells (tissue slices treated with concentrations of estrogen present in follicular phase (0.5 μM of estradiol for 8 days), FIG. 26B) | fraction of Ki67+ cells [1]
c1ccc(-c2nn3c(c2-c2ccnc4cc(OCCN5CCOCC5)ccc24)CCC3)nc1 [TGFBR inhibitor, LY2109761] | most pronouncedly decreased; also recorded: decreased | opposite effect | – | –
CC1=C2C[C@H]3[C@@H](CC=C4C[C@@H](O)CC[C@@]43C)[C@@H]2CC[C@]12O[C@@H]1C[C@H](C)CN[C@H]1[C@H]2C [Hh, cyclopamine] | – | significantly (p<0.05) decreased | – | –
CC/C(=C(\c1ccccc1)c1ccc(OCCN(C)C)cc1)c1ccccc1 [tamoxifen] | high | – | – | –
C[C@]12CC[C@@H]3c4ccc(O)cc4CC[C@H]3[C@@H]1CC[C@@H]2O [estrogen, estradiol] | – | – | high | –
COc1cc([C@@H]2c3cc4c(cc3[C@H](O)[C@H]3COC(=O)[C@@H]23)OCO4)cc(OC)c1OC [IGFR, picropodophylotoxin] | most pronouncedly decreased; also recorded: decreased | significantly (p<0.05) decreased | – | –
COc1cc2ncnc(Nc3cccc(Cl)c3)c2cc1OC [EGFR, tyrphostin AG1478] | – | significantly (p<0.05) decreased | – | decreased

Reference: patent US11644466B2, “Methods for treating, preventing and predicting risk of developing breast cancer” (Dana-Farber Cancer Institute, Inc., priority 2012, dated 2023)
